A short description of data set [1]: Luminescence Cell-Based Dose Confirmation HTS to Identify Inhibitors of Platelet Dense Granule Release. [Related pubchem assays: 1663 (Primary HTS), 1678 (Summary of Project)]. It counts as functional.
The target in data set [2] is Luciferin 4-monooxygenase (Photinus pyralis, UniProt P08659). Put plainly: inhibition of purified Photinus pyralis luciferase – biochemical, luminescence, dose response (AID 1891).
Data set [3] has as its target T1, Corticotropin-releasing factor receptor 2/Corticotropin-releasing factor-binding protein (Homo sapiens, UniProt P24387+Q13324).
T1 sequence (Q13324 whole entry): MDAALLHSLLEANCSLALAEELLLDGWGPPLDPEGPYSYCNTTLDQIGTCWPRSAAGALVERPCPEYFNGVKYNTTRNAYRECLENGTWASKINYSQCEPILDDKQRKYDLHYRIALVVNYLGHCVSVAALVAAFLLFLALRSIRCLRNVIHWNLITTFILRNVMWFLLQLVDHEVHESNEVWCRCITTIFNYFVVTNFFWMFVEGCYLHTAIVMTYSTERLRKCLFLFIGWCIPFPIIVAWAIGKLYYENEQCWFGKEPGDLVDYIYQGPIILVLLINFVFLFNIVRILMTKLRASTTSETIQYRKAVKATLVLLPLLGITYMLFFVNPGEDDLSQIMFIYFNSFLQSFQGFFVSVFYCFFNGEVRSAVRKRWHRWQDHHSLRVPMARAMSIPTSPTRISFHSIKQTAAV
T1 sequence (P24387 whole entry): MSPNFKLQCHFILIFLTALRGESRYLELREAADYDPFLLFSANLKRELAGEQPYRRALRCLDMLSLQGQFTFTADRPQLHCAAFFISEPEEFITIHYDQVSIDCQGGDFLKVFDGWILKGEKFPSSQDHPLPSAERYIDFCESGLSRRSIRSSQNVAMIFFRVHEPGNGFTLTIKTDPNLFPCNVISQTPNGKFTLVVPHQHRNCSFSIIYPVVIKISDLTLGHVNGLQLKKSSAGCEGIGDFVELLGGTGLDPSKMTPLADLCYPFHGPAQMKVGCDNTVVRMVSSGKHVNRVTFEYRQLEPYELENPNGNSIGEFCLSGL
Put plainly: Dose Response confirmation of uHTS hits for small molecule antagonists of the CRF-binding protein and CRF-R2 receptor complex. In kind it is functional. To be noted: read-out: IC50_Mean.

Data set [4] addresses T1, Corticotropin-releasing factor receptor 2/Corticotropin-releasing factor-binding protein. The data set is described as follows: activators of CRF receptor 2 with binding protein – uHTS hits, confirmation (AID 602473). In kind it is functional. To be noted: read-out: EC50_Mean.
Data set [5] has as its target Cytochrome P450 2D6 (Homo sapiens, UniProt P10635).
For data set [6], the target named is Cytochrome P450 2C19 (Homo sapiens, UniProt P33261). The data set is described as follows: Cytochrome panel assay with activity outcomes. Panel member name: p450-cyp2c19 Compounds with AC50 equal or less than 10 uM are considered active. In kind it is functional.
Cytochrome P450 2C19, sequence (P33261 whole entry): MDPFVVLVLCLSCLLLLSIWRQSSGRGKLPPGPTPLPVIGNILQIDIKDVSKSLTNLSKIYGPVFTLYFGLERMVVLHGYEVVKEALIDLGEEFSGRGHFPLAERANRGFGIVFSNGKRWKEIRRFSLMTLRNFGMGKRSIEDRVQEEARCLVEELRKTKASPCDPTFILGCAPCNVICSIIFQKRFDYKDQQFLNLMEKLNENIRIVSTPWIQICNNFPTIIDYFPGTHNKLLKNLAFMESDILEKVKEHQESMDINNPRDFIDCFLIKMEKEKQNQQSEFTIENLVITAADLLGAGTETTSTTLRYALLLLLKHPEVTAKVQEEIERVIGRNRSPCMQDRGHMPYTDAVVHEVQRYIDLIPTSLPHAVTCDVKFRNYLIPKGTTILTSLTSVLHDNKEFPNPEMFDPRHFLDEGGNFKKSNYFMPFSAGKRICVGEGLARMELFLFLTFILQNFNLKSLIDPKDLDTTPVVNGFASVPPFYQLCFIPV
Data set [7] can be described thus: cells. It counts as functional.
In data set [8] the target is T2, Rac GTPase-activating protein 1 (Homo sapiens, UniProt Q9H0H5).
T2 sequence (Q9H0H5 whole entry): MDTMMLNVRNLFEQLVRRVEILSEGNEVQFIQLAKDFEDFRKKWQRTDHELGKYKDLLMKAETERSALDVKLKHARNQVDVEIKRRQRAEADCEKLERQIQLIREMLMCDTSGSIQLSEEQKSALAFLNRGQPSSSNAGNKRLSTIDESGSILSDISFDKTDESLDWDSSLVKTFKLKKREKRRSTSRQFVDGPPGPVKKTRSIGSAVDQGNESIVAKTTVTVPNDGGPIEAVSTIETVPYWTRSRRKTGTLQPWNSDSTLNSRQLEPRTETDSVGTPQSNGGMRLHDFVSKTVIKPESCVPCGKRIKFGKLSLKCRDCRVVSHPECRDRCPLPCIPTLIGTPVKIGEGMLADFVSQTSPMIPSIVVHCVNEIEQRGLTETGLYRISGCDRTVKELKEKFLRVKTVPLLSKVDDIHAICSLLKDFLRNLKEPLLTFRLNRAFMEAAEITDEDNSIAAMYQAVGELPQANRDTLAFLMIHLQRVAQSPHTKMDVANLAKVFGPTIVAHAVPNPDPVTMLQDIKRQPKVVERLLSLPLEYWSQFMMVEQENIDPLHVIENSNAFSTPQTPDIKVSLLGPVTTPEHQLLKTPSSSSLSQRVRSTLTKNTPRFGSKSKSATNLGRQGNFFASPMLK
Put plainly: blockers of MgcRacGAP-driven Rac1 GTP hydrolysis – biochemical, ADP Hunter fluorescence, primary and confirmatory, confirmation (AID 624330). In kind it is functional.

In data set [9] the target is Cytochrome P450 3A4 (Homo sapiens, UniProt P08684).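 Also: CYP3A4 tested as one member of a cytochrome P450 panel screen.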
Cytochrome P450 3A4, sequence (P08684 whole entry): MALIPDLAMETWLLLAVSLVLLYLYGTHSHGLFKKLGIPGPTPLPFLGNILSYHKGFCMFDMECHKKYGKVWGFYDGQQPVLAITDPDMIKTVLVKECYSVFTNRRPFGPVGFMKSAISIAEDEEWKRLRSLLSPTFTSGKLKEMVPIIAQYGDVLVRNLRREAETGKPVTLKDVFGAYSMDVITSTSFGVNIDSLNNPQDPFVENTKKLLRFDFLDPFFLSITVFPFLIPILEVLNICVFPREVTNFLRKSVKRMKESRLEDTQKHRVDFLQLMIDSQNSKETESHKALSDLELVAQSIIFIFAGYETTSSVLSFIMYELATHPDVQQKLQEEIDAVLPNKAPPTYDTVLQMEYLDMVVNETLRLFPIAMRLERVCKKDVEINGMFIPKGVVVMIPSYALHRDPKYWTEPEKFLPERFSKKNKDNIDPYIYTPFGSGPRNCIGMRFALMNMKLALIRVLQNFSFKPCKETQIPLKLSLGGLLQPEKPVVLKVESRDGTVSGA
For data set [10], the target named is Paired box protein Pax-8 (Homo sapiens, UniProt Q06710). Put plainly: PAX8 transcriptional activity inhibition in RMG-I – RMG-I cells, luciferase, cherry-pick, dose response (AID 687027).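 Also: luciferase reporter driven by Pax8 target thyroperoxidase promoter measured by SteadyGlo luminescence.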 In kind it is functional, cell-based.
Paired box protein Pax-8, sequence (Q06710 whole entry): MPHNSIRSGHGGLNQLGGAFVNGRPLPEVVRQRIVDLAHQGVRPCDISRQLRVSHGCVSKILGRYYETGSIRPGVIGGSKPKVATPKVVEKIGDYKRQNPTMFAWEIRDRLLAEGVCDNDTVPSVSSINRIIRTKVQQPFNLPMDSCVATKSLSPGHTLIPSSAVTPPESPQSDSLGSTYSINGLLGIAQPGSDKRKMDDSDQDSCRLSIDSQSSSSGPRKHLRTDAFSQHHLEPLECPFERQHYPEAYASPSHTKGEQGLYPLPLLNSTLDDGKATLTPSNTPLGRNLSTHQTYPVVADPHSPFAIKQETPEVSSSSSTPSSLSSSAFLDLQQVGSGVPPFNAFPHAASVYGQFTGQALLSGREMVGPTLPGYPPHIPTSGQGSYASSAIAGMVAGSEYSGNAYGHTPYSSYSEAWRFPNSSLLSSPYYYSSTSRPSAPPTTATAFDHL
In data set [11] the target is FAD-linked sulfhydryl oxidase ALR (Homo sapiens, UniProt P55789). The data set is described as follows: ALR-catalysed DTT oxidation blockers – biochemical, H2O2 detection, luminescence, cherry-pick, dose response (AID 493248).
FAD-linked sulfhydryl oxidase ALR, sequence (P55789 whole entry): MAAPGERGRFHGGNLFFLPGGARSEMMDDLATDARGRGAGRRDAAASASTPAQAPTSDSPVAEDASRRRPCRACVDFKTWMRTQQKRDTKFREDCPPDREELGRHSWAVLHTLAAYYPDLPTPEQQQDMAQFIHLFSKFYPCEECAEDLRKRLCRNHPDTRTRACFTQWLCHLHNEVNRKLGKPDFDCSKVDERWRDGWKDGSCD
Data set [12] has as its target T3, Cytochrome P450 1A2 (Homo sapiens, UniProt P05177).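 Also: PubChem cytochrome P450 panel assay, CYP1A2 panel member.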
T3 sequence (P05177 whole entry): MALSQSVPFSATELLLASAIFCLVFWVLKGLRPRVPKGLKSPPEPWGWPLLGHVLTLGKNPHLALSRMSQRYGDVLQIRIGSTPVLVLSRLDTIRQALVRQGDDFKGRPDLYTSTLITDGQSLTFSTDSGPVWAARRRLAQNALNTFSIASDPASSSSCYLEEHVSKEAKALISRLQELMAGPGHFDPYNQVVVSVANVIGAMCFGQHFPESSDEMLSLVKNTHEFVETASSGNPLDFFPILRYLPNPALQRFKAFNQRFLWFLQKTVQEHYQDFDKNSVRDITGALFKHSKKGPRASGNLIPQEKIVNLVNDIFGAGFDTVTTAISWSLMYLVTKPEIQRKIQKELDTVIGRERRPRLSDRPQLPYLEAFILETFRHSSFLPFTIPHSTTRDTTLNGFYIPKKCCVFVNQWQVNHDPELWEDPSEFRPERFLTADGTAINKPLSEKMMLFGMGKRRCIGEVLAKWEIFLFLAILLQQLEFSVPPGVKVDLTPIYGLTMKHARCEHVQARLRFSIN

The target of data set [13] is Cytochrome P450 2C9 (Homo sapiens, UniProt P11712).
Cytochrome P450 2C9, sequence (P11712 whole entry): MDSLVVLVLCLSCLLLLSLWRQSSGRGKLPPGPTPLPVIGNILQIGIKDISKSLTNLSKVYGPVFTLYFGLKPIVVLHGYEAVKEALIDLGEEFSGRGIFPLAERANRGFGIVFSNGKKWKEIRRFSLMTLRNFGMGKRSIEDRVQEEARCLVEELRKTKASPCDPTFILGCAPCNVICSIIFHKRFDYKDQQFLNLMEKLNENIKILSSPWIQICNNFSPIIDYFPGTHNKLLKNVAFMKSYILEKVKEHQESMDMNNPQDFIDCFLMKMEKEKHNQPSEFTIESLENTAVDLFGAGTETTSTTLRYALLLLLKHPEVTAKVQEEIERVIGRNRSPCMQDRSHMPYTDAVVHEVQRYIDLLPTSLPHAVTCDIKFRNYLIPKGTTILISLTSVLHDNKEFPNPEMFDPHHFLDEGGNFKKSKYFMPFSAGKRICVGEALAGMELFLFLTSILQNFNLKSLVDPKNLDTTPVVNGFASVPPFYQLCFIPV

Activity calls are given as the source filed them. Some results are limits rather than exact numbers.

In ChEMBL document CHEMBL1201862, “PubChem BioAssay data set” (2004) one finds EC50, IC50 and AC50 data, which are given here for 35 compounds.

Luciferin 4-monooxygenase, sequence (P08659 whole entry): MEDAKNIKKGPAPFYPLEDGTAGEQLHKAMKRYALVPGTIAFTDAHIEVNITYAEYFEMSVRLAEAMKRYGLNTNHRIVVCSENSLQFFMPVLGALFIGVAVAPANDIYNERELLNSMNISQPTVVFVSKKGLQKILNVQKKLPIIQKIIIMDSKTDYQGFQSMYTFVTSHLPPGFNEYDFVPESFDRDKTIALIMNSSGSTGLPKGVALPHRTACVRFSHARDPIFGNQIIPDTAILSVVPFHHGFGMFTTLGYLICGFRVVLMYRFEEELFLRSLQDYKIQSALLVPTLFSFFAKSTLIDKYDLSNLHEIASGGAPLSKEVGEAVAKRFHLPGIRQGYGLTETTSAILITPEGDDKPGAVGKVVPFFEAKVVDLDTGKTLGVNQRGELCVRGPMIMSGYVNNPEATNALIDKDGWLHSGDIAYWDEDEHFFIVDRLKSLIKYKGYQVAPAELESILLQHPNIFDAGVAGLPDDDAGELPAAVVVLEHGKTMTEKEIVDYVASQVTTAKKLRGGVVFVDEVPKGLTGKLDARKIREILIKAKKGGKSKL
Cytochrome P450 2D6, sequence (P10635 whole entry): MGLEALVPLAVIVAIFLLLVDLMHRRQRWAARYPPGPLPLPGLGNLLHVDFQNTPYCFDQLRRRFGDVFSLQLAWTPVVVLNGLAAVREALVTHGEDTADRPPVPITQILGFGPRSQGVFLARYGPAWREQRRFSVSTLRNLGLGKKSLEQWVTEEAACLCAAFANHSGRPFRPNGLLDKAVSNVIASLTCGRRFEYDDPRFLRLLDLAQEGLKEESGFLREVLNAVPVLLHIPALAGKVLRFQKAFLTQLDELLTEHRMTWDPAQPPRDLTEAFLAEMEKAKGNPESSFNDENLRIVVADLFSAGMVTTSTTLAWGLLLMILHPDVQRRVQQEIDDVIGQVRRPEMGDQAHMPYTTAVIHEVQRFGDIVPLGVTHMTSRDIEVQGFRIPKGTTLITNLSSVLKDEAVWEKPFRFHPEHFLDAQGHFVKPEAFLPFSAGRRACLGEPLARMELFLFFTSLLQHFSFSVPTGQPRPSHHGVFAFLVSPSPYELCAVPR

As to `COC(=O)C1=C2SC(C)C(=O)N2C(N)=C(C#N)C1c1ccc(OC)c(OC)c1` (centres undefined), the EC50 in data set [1] and in data set [2] was > 112 µM (not active) in each case.

With `Cc1ccc(C)c(NC(=O)c2cc(S(=O)(=O)N3CCOCC3)cn2C)c1`, the EC50 in data set [1] and in [2] was > 112 µM (not active) each time.

As for `Cc1cccc(-n2c(SCC(=O)N3CC(=O)Nc4ccccc43)nc3ccccc3c2=O)c1C`, in data set [3], the IC50 is > 47.1 µM (inactive). Besides, the EC50 in data set [4] is > 53 µM (inactive).

As for `CN(C(=O)CCS(=O)(=O)c1ccc2c(c1)oc(=O)n2C)C1CCCCC1`, the IC50 in data set [3] is > 47.1 µM (inactive). Moreover, the EC50 in data set [4] was > 53 µM (inactive).

Turning to `C[C@H](CN(C)C)C(O)(c1ccccc1)c1ccccc1`, the AC50 (in general, the concentration at which the activity in the assay is half-maximal) in data set [5] was 3.98 µM (inconclusive); in data set [6] it was “inconclusive”.

As to `CN(C)S(=O)(=O)c1ccc(Cl)c(NC(=O)CNC2(C)CCS(=O)(=O)C2)c1` (centres undefined), the IC50 in data set [3] is > 47.1 µM (inactive). In [4], the EC50 was > 53 µM (inactive).

Consider `CC(C)(O)C#Cc1ccc(C(=O)Nc2ccc3c(c2)OCO3)s1`, for which, in [7], the IC50 was 5 µM (active).

With `CC12CCC(C(=O)NNc3ccccc3)(C(=O)C1=O)C2(C)C` (centres undefined), the EC50 in [1] and in [2] was > 112 µM (not active) throughout.

For `COc1ccc(C(=O)COC(=O)CCNS(=O)(=O)c2ccc(NC(C)=O)cc2)c(OC)c1`, the IC50 in data set [3] is > 47.1 µM (inactive). Also, the EC50 in [4] is > 53 µM (inactive).

As for `N#C/C(=C\c1c[nH]c2ccccc12)c1nnc2n1CCCCC2`, the EC50 in [1] and in [2] was > 112 µM (not active) each time.

As for `N#Cc1ccc(NC(=O)COC(=O)CSc2nnc(-c3ccc(Cl)cc3)o2)cc1`, the IC50 in [3] was > 47.1 µM (inactive). In addition, in data set [4], the EC50 is > 53 µM (inactive).

For `CCOc1cc(N2CCOCC2)c(OCC)cc1NCC(=O)N1CCN(Cc2ccccc2)CC1`, the IC50 in data set [8] is 64.2 µM (active).

For the compound `COc1ccc(-n2c(=O)c(-c3ccccc3)nc3cncnc32)cc1`, the AC50 in [9] is 15.8 µM (inconclusive); in [5] it was 25.1 µM (inconclusive); in data set [6] (read-out: AC50), 39.8 µM (inconclusive).

Turning to `CCCS(=O)(=O)N1CCC(C(=O)NCCCOC(C)C)CC1`, in data set [3], the IC50 is > 47.1 µM (inactive). Further, in data set [4], the EC50 was > 53 µM (inactive).

`CCC(C)c1ccc(OCCn2ccnc2)cc1` (centres undefined): the IC50 in data set [7] was 22.6 µM (active).

As for `C[C@@H]1CN([C@H](C)CO)C(=O)c2cc(NC(=O)c3ccccc3)ccc2O[C@@H](C)CCCCO[C@H]1CN(C)Cc1ccc(C(F)(F)F)cc1`, the AC50 in data set [10] is 3.09 µM (active).

`C=CCn1c(SCC(=O)Nc2c(C)cccc2C)nnc1-c1ccncc1`: the IC50 in data set [3] is > 47.1 µM (inactive). Moreover, in [4], the EC50 was > 53 µM (inactive).

With `CSc1nc(/C=C2\C=Nc3ccccc32)c(O)n1C`, the EC50 is 0.812 µM (active) in [1] and 5.32 µM (active) in data set [2]. Moreover, in data set [11], the AC50 was 4.03 µM (active). In data set [8], the IC50 was 41 µM (active).

`CC1CCC(NC(=O)c2ccc(CS(=O)(=O)Cc3ccccc3F)o2)CC1` (centres undefined): the AC50 was 0.251 µM (inconclusive) in data set [12], 17.8 µM (inconclusive) in [13], 14.1 µM (inconclusive) in [9] and 35.5 µM (inconclusive) in data set [5]. For the same compound, the EC50 in data set [1] and in [2] was > 112 µM (not active) in each case.

On to `CCOC(=O)COc1cc([N+](=O)[O-])cc2cccnc12`, for which the IC50 in data set [7] was 46.4 µM (active).

As to `CC(C(=O)Nc1ccccc1C(F)(F)F)N1CCN(C)CC1` (centres undefined), in data set [8], the IC50 is 163 µM (active).

As for `Cc1cnc(NC(=O)CN2CCN(c3ccccc3F)CC2)s1`, the IC50 in [8] was 150 µM (active).

In the case of `C[C@@H]1CCCCO[C@@H](CN(C)CC2CCCCC2)[C@@H](C)CN([C@@H](C)CO)C(=O)c2cc(NC(=O)Nc3ccc(C(F)(F)F)cc3)ccc2O1`, the half-maximal activity concentration (AC50) in data set [10] is 12 µM (active).

For `O=C(CN1CCCCCC1)Nc1nc2ccccc2s1`, the IC50 in data set [8] is 173 µM (active).

Consider `Cc1ccc(Oc2nc3ccccn3c(=O)c2/C=C(\C#N)C(=O)NC2CCS(=O)(=O)C2)c(C)c1` (centres undefined), for which the EC50 was 6.03 µM (active) in [1] and > 112 µM (not active) in data set [2].

For the compound `N/C(CSS(=O)(=O)O)=N\[C@@H]1C[C@H]2CC[C@@H]1C2`, the AC50 in data set [12] is 10 µM (inconclusive); in [13], 7.94 µM (inconclusive); in [5], 7.94 µM (inconclusive); in data set [6], “inconclusive”.

Consider `O=C(NCN1CCCCC1)c1cnccn1`, for which the IC50 in [3] is > 47.1 µM (inactive). For the same compound, the EC50 in data set [4] is > 53 µM (inactive).

With `CC(C)(C)OC(=O)N1CCCN(C(=O)Nc2cccc(Cl)c2)CC1`, the IC50 in data set [3] is > 47.1 µM (inactive). For the same compound, the EC50 in [4] was > 53 µM (inactive).

`CC(=O)c1ccc(NC(=O)C(C)OC(=O)c2ccc(Br)o2)cc1` (centres undefined): in data set [3], the IC50 was > 47.1 µM (inactive). Also, the EC50 in data set [4] is > 53 µM (inactive).

For `Cn1c(=O)c2c(nc(OCc3ccc(Cl)cc3Cl)n2Cc2ccc(F)cc2)n(C)c1=O`, the EC50 in [1] and in data set [2] was > 112 µM (not active) throughout.

Turning to `Cc1ccc(OCC(=O)Nc2ccc([N+](=O)[O-])cn2)cc1C`, in data set [3], the IC50 was > 47.1 µM (inactive). For the same compound, the EC50 in data set [4] is > 53 µM (inactive).

Take `COc1ccccc1N1CCN(C(=O)C(=O)c2cn(CC(=O)N3CCCC3)c3ccccc23)CC1`: the IC50 in data set [3] was > 47.1 µM (inactive). In data set [4], the EC50 is > 53 µM (inactive).

With `CCOC(=O)C(CC)n1cnc2c(nnn2-c2ccc(F)cc2)c1=O` (centres undefined), the EC50 in data set [1] and in [2] was > 112 µM (not active) in each case.

`CCN(CC)C(=O)c1c(C)nc2ccccn12`: the IC50 in data set [3] is > 47.1 µM (inactive). Besides, in data set [4], the EC50 is > 53 µM (inactive).

`CCN1CCN(CC(=O)N/N=C/c2cc(Br)cs2)CC1`: the IC50 in data set [8] is 94.2 µM (active).
